# Experiments:
# [1] = system: Murine erythroleukemia (MEL) cells; assay: Alternate complement mediated cell lysis assay, MEL cells with normal human serum; assay type: cell-based; conditions: for effect of pretreatment on protective effect of rOPN: pretreatment followed by rOPN 10 μg/mL; for protection of MEL cells from complement-mediated lysis (cell viability): 10 μg/mL protein 10 min, normal human serum 1:10, 2 h, trypan blue and MTT
# Procedure: MEL cells were rinsed three times with GVB-MgEGTA buffer, resuspended in GVB-MgEGTA at a density of 5×10^6 cells/mL, and incubated at 37° C. with different concentrations of normal human serum. After 2 hrs, cells were harvested for trypan blue exclusion assay. The thiazolium blue assay was carried out at identical serum dilutions and cell viability was determined by absorbance at 560 nm. Each data point represents the average of three measurements. The error bars represent the standard deviation of the mean (A). MEL cells in GVB-MgEGTA buffer were incubated with 10 μg/mL of either rBSP or rOPN for 10 minutes at 37° C. Normal human serum was then added at a dilution of 1:10 and the cells were returned to 37° C., incubated for 2 hours and cell viability was determined by trypan blue and thiazolyl blue (MTT) reduction assays (B). Data from 3–7 separate experiments, with treatment replicates in triplicate, was combined to yield mean values. Error bars represent the standard error of the mean. N=number of experiments combined.
# MEL cells prepared as in FIG. 8 were treated with normal rBSP (10 μg/mL), rBSP whose RGD sequence had been mutated to KAE ([…]), and either GRGDS (SEQ ID NO: 10) peptide (400 μM) followed by rBSP or an αVβ3 antibody (1:4000) followed by rBSP for 10 minutes prior to the addition of normal human serum. The cells were then incubated for […] after which cell viability determined using the MTT assay (A). A cohort of MEL cells were pretreated with rOPN (10 μg/mL) alone, GRGDS (SEQ ID NO: 10) peptide followed by rOPN, the αVβ3 antibody followed by rOPN, or an anti-CD44 antibody (Chemicon, Co.) followed by rOPN, or hyaluronan (HA) followed by rOPN (B). Cells were then treated with normal human serum and viability assayed as in FIG. 8. […] The data represents the mean and standard error of the mean for three separate experiments. Statistical significance was determined by analysis of variance. Percent cell viability was determined using A560 absorbance values of various conditions and a control where no serum had been added (100% viable). The cross-hatched region represents that range of values observed when normal human serum (1:10) alone was added (maximal cell death).
# The first model system employed was a murine erythroleukemia (MEL) cell line which when incubated with normal human serum can be readily assayed for alternate complement pathway (ACP)-mediated cell lysis (Varnet et al., Curr. Opin. Cell Biol., 8(5):724–730, 1996). Cell survival was measured by both trypan blue dye exclusion and by thiazolyl blue (MTT) reduction by living mitochondria. Titration with dilutions of normal human serum and time courses were carried out to define optimal incubation conditions. At 1:10 dilution, human serum totally lysed the MEL cells as measured by both assay systems (FIG. 8A).
# Murine erytliroleukemia (MEL) cells (a gift of Dr. Marilyn Farquhar, Univ. CA San Diego.) grown in DMEM containing 10% fetal bovine serum and 4 mM glutamine were rinsed three times with gelatin veronal buffer with Mg2^+ and EGTA (GVB-MgEGTA, Sigma, St. Louis, Mo.). Cells were resuspended in GVB-MgEGTA at a density of 5×10^6 cells/mL and incubated at 37° C. with different concentrations of normal human serum diluted in GVB-MgEGTA. After 2 h, cells were harvested for trypan blue exclusion assay by removing a 50 μL aliquot, incubating for 15 minutes in 0.4% trypan blue, and counting viable cells under an inverted microscope. The thiazolium blue assay was carried out at identical serum dilutions by incubating a 50 μL aliquot of the cell suspension in an equal volume of 1 mg/mL thiazolyl blue (MTT) for 45 min. Cell viability was determined spectrophotometrically by absorbance at 560 nm. Cells in GVB-MgEGTA buffer were pre-incubated with 10 μg of either rBSP, rDMP1, or rOPN in 1 mL for 10 minutes at 37° C. […]
# [2] = system: MCF-7 breast cancer cells; assay: Alternate complement pathway cell lysis assay with guinea pig serum, MCF-7; assay type: cell-based, human; conditions: MCF-7, 10 μg/mL, guinea pig serum 1:5, trypan blue and MTT
# Procedure: (§1) Human cancer cell lines, MCF-7 (A) and U-266 (B) cells were rinsed three time with GVB-MgEGTA buffer and subsequently treated exactly as in the MEL cell complement-mediated cell lysis assay described above except complement active guinea pig serum (GPS) was substituted for human serum. Three different dilutions of GPS were assayed. For cultures pretreated with 10 μg/mL BSP or OPN, the dilution of GPS used was 1:5. Cell viability was determined by both trypan blue exclusion (solid bar) and MTT (open bar) assay. The bars represent the mean values of triplicate samples and the error bars are the standard deviation values.
# (§2) Murine erytliroleukemia (MEL) cells (a gift of Dr. Marilyn Farquhar, Univ. CA San Diego.) grown in DMEM containing 10% fetal bovine serum and 4 mM glutamine were rinsed three times with gelatin veronal buffer with Mg2^+ and EGTA (GVB-MgEGTA, Sigma, St. Louis, Mo.). Cells were resuspended in GVB-MgEGTA at a density of 5×10^6 cells/mL and incubated at 37° C. with different concentrations of normal human serum diluted in GVB-MgEGTA. […] Cell viability was determined spectrophotometrically by absorbance at 560 nm. […] Normal human serum collected for good complement activity was then added at a dilution of 1:10 and the cells returned to 37° C. for 2 hours and cell viability was determined by trypan blue-exclusion and MTT assays. […]
# [3] = system: U-266 myeloma cells; assay: Alternate complement pathway cell lysis assay with guinea pig serum, U-266; assay type: cell-based, human; conditions: U-266, 10 μg/mL, guinea pig serum 1:5, trypan blue and MTT
# Procedure: as §1, §2
# [4] = biological target: T1, purified human complement Factor H (Homo sapiens, UniProt P08603); assay: Steady state fluorescence titration of Factor H with SIBLINGS proteins; assay type: binding; conditions: fluorescence quenching at 347 nm, excitation 295 nm
# T1 construct: purchased Quidel Corporation (San Diego, Calif.)
# Excerpt: FIGS. 3A and 3B are graphs which show the result of a titration of Factor H with BSP.
# The salient structural features of Factor H include 20 short consensus repeats (SCRs) that contain four cysteine residues forming two disulfide bonds per repeat. In addition, each SCR contains one conserved tryptophan residue per repeat and Factor H is known to interact with several sialic acid-containing proteins. Therefore, binding interactions between members of the SIBLINGS family of proteins and Factor H can be studied by steady state fluorescence.
# Steady state fluorescence studies were accomplished by titrating purified human complement Factor H with rBSP, rOPN, and rDMP1 followed by excitation at 295 nm and monitoring emission between 300 and 450 nm. The emission profile of Factor H alone yields a peak at 347 nm. The addition of rBSP, rOPN, or rDMP1 in nm increments causes a relative fluorescent intensity quenching. Conversion of the fluorescent intensity titration into a binding curve by determining the fraction of binding sites occupied as the fractional change in fluorescence quenching at 347 nm yields a saturable binding curve. […] Given that normal serum concentration of Factor H is ^˜0.5 mg/mL it is probable that virtually all BSP, OPN, and DMP1 in serum will be complexed with Factor H.
# T1 sequence (P08603 19-1231): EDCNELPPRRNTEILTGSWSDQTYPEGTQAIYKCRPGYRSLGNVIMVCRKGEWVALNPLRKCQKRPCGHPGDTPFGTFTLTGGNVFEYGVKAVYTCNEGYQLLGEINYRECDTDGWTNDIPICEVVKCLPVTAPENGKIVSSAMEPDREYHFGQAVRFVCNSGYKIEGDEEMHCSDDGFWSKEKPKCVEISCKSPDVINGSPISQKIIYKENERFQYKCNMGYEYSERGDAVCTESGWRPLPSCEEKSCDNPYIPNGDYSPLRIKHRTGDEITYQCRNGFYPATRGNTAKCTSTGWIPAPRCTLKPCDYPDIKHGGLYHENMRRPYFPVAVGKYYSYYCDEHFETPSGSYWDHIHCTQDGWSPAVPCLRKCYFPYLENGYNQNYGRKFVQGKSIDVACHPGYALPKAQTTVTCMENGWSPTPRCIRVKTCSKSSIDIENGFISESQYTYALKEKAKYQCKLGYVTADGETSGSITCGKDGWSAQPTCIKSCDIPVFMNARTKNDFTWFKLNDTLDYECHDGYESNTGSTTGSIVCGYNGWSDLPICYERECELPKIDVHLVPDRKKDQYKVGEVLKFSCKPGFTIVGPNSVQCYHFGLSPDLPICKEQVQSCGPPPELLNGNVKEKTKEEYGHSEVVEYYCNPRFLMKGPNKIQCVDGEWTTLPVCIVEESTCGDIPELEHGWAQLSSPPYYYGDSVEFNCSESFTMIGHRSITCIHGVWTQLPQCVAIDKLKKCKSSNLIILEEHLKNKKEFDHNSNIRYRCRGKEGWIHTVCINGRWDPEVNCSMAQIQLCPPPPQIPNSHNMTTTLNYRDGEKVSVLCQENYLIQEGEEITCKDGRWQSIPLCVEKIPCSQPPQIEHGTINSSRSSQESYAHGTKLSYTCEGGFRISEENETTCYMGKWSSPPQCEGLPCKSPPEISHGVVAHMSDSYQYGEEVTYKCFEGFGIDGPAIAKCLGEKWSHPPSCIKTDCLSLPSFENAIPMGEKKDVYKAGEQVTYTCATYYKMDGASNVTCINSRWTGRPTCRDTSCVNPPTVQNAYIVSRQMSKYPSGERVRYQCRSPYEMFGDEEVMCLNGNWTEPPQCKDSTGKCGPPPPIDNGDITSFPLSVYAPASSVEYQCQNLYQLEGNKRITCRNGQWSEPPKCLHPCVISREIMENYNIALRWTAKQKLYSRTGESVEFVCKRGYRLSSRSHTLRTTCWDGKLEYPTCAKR
substance,measurement,setting,value
GRGDS: synthetic peptide used to compete with SIBLINGS proteins for integrin type binding (Calbiochem-NovaBiochem) [reference compound],effect of pretreatment on protective effect of rBSP,"[1]; MEL cells, GRGDS 400 μM or αVβ3 antibody 1:4000 followed by rBSP 10 μg/mL, MTT",negated the protective effect
same,effect of pretreatment on protective effect of rOPN,"[1]; MEL cells, MTT",reduced cell survival
same,effect of preincubation on DMP1 protection,[1]; cells preincubated before DMP1,diminished but did not abolish
"OPN: osteopontin, SIBLINGS family member; recombinant from adenoviral construct",survival and protection from complement-mediated cell lysis,[2],enhanced survival and protection
same,survival and protection from complement-mediated cell lysis,[3],enhanced survival and protection
same,binding constant with Factor H,[4],in the nM range
same,dose relation of protection of MEL cells from alternate complement pathway-mediated lysis,[1],dose related responses
same,protection of MEL cells from complement-mediated lysis (cell viability),[1],protect
same,protection of MEL cells from complement-mediated lysis (cell viability),[1]; listed as recombinant OPN,conferred protection
hyaluronan [reference compound],effect of pretreatment on protective effect of rOPN,"[1]; MEL cells, MTT",reduced the protective effect
rBSP-Factor H: pre-formed complex of rBSP and Factor H,protection of MEL cells from complement-mediated lysis (cell viability),[1],abolished the protection
rOPN-Factor H: pre-formed complex of rOPN and Factor H,protection of MEL cells from complement-mediated lysis (cell viability),[1],abolished the protection

# Source: patent publication US6995018B1, “Complex formed by N-linked glycoproteins (SIBLINGS)and Factor H” (The United States of America as represented by the …, priority 1999, dated 2006)
